In this assay the target is cdc7/dbf4 (Homo sapiens, UniProt O00311). The assay is described as follows: In vitro assay of CDC7/DBF4 inhibition (phosphoserine 108-MCM-2 detection, donor/acceptor beads). Type of assay: biochemical. The note with it: 0.5 μM ATP solution, MCM-2 substrate, 1 hr room temperature; for inhibition at 0.93 µM (stock): Test Concentration 0.93 μM; for inhibition at 1.39 µM (stock): Test Concentration 1.39 μM. The method, then:
A 20.5 μL kinase reaction was performed on OptiPlate-384 plates PerkinElmer, 6007290) as follows by sequential addition of: 0.5 μL of test compounds of the invention in DMSO, 10 μL 0.5 μM ATP in reaction buffer, 10 μL 2.2 nM cdc7/dbf4 baculovirus derived), 4.4 nM MCM-2 in a reaction buffer. The reaction proceeded for 1 hr at room temperature on an orbital shaker. The reaction was terminated by addition of 10 μL detection buffer containing Streptavidin-coated donor beads and Protein A conjugated acceptor beads (54 μg/ml), and 1:4000 diluted rabbit antibody against phosphoserine 108-MCM-2 (Bethyl Labs). The mixture was incubated at room temperature for 4 hrs in the dark. The plate was then read on a PerkinElmer Fusion instrument. The reaction buffer contained 50 mM Hepes (pH 7.2-7.5), 10 mM MgCl2, 1 mM dithiothreitol (DTT), leupeptin (10 μg/ml), and bovine serum albumin (BSA) (0.2 mg/ml). The detection buffer contained 25 mM Tris (pH 7.5), 400 mM NaCl, 100mM EDTA, 0.3% BSA, and 0.05% Tween 20.
Representative compounds of the invention which inhibited the kinase reaction >70% in the above cdc7/db4 assay were selected for further analysis and confirmation. Test compounds were diluted in DMSO to a concentration of 0.93 μM or 1.39 μM and 0.5 μL of each test solution was added to wells for assay using the assay conditions and methods as described above.

Usually inhibition stands for the relative decrease from the control value, in per cent. High values mean strong suppression, low ones little suppression.

Chain of cdc7/dbf4 (O00311 whole entry): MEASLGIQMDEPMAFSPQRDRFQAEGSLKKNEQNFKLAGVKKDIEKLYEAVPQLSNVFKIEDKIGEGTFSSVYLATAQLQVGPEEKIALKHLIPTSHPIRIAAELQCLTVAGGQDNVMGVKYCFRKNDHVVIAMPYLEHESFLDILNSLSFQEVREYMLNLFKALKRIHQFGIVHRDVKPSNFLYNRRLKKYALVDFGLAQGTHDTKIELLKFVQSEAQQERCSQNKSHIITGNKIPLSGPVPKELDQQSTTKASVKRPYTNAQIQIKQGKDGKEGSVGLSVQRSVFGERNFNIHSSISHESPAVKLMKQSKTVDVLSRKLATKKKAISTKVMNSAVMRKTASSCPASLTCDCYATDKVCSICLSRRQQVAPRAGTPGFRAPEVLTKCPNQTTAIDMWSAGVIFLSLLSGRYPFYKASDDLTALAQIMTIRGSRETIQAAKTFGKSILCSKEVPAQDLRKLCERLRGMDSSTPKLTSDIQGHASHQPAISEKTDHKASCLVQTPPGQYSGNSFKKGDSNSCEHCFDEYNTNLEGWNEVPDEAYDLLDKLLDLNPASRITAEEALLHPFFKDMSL
Chain of cdc7/dbf4 (Q9UBU7 whole entry partner): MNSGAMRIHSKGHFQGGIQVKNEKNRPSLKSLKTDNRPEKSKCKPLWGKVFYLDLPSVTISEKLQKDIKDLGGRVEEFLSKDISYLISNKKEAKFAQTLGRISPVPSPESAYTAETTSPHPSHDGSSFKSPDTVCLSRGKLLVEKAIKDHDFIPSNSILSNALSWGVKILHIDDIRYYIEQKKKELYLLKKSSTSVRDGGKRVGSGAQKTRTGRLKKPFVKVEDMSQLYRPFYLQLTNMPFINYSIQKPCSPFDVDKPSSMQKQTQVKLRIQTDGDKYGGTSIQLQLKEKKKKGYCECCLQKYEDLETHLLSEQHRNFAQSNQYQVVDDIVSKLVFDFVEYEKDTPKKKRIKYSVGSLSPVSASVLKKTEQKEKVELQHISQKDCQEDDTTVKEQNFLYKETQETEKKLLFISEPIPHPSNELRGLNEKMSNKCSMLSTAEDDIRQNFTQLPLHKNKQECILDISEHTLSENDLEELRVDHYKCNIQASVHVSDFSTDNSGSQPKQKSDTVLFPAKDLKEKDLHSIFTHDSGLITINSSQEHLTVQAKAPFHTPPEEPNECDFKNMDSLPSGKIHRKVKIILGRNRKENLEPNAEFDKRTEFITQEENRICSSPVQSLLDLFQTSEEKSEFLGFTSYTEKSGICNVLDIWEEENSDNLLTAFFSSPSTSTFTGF

In turn, `O=c1nc(-c2ccc3[nH]ncc3c2)cc(-c2cccc(F)c2)[nH]1` [Example 2, 6-(3-fluorophenyl)-4-(1H-indazol-5-yl)pyrimidin-2(1H)-one] yielded an inhibition at 0.93 µM (stock) of 82%.

On to `COc1ccc(-c2cc(-c3ccc4[nH]ncc4c3)nc(=O)[nH]2)c(F)c1` [Example 3, 6-(2-fluoro-4-methoxyphenyl)-4-(1H-indazol-5-yl)pyrimidin-2(1H)-one], for which the inhibition at 0.93 µM (stock) was 81%.

Regarding `COc1ccc(OC)c(-c2cc(-c3ccc4[nH]ncc4c3)nc(=O)[nH]2)c1` [Example 4, 6-(2,5-dimethoxyphenyl)-4-(1H-indazol-5-yl)pyrimidin-2(1H)-one], the inhibition at 0.93 µM (stock) was 94%.

In the case of `COc1ccc(-c2cc(-c3ccc4[nH]ncc4c3)nc(=O)[nH]2)cc1F` [Example 5, 6-(3-fluoro-4-methoxyphenyl)-4-(1H-indazol-5-yl)pyrimidin-2(1H)-one], the inhibition at 0.93 µM (stock) was determined as 75%.

Compound `CCc1ccc(-c2cc(-c3ccc4[nH]ncc4c3)nc(=O)[nH]2)cc1` [Example 6, 6-(4-ethylphenyl)-4-(1H-indazol-5-yl)pyrimidin-2(1H)-one] registered an inhibition at 0.93 µM (stock) of 83%.

`COc1ccc(-c2cc(-c3ccc4[nH]ncc4c3)nc(=O)[nH]2)cc1OC` [Example 7, 6-(3,4-dimethoxyphenyl)-4-(1H-indazol-5-yl)pyrimidin-2(1H)-one] gave an inhibition at 0.93 µM (stock) of 62%.

Compound `O=c1nc(-c2ccc3[nH]ncc3c2)cc(-c2cccc(C(F)(F)F)c2)[nH]1` [Example 8, 4-(1H-indazol-5-yl)-6-[3-(trifluoromethyl)phenyl]pyrimidin-2(1H)-one] registered an inhibition at 0.93 µM (stock) of 55%.

With `O=c1nc(-c2ccc3[nH]ncc3c2)cc(-c2ccccc2F)[nH]1` [Example 9, 6-(2-fluorophenyl)-4-(1H-indazol-5-yl)pyrimidin-2(1H)-one], the inhibition at 0.93 µM (stock) came out at 87%.

Compound `O=c1nc(-c2ccc3[nH]ncc3c2)cc(-c2cccc(Cl)c2)[nH]1` [Example 10, 6-(3-chlorophenyl)-4-(1H-indazol-5-yl)pyrimidin-2(1H)-one] had an inhibition at 0.93 µM (stock) of 98%.

`O=c1nc(-c2ccc3[nH]ncc3c2)cc(-c2ccccc2)[nH]1` [Example 11, 4-(1H-indazol-5-yl)-6-phenylpyrimidin-2(1H)-one] registered an inhibition at 1.39 µM (stock) of 98%.

Turning to `O=c1nc(-c2ccc3[nH]ncc3c2)cc(-c2cccc(OCc3ccccc3)c2)[nH]1` [Example 12, 6-[3-(benzyloxy)phenyl]-4-(1H-indazol-5-yl)pyrimidin-2(1H)-one], the inhibition at 1.39 µM (stock) stood at 98%.

In turn, `O=c1nc(-c2ccc3[nH]ncc3c2)cc(-c2ccc(N3CCOCC3)cc2)[nH]1` [Example 13, 4-(1H-indazol-5-yl)-6-(4-morpholin-4-ylphenyl)pyrimidin-2(1H)-one] returned an inhibition at 1.39 µM (stock) of 92%.

For `O=c1nc(-c2ccc3[nH]ncc3c2)cc(-c2ccc(Oc3ccccc3)cc2)[nH]1` [Example 14, 4-(1H-indazol-5-yl)-6-(4-phenoxyphenyl)pyrimidin-2(1H)-one], the inhibition at 1.39 µM (stock) came to 84%.

With `O=c1nc(-c2ccc3[nH]ncc3c2)cc(-c2ccc(OCc3ccccc3)cc2)[nH]1` [Example 15, 6-[4-(benzyloxy)phenyl]-4-(1H-indazol-5-yl)pyrimidin-2(1H)-one], the inhibition at 0.93 µM (stock) turned out to be 58%.

The compound `O=c1nc(-c2ccc3[nH]ncc3c2)cc(-c2ccc(N3CCNCC3)cc2)[nH]1` [Example 16, 4-(1H-indazol-5-yl)-6-(4-piperazin-1-ylphenyl)pyrimidin-2(1H)-one] came in with an inhibition at 0.93 µM (stock) of 94%.

(Values after patent publication US20070293491A1, “INDAZOLE COMPOUNDS AND METHODS FOR INHIBITION OF CDC7” (NOVARTIS VACCINES AND DIAGNOSTICS, INC., priority 2006, published 2007).)
